Each block holds one molecule with its values, some of them ahead of it.
Assays:
USP-2 and UCH-L3 [1] = assay: Downscaling: compatibility of the deubiquitinase assay with HBC and DMSO; assay type: biochemical, human
Experimental: One important factor which has to be tested during downscaling of the assay to the […] (2080 well nanoplates) is the assay's compatibility with hydroxy beta cyclodextrin (HBC) and DMSO. Nanocarriers are coated with HBC in order facilitate re-solubilization of dried test compounds (‘dry screening’) and to reduce adsorption of assay components to the carrier. If HBC interferes with the assay, pre-coated plates can not be used and ‘wet screening’, utilizing compounds dissolved in DMSO, has to be performed. […] Even DMSO concentrations of up to 5% are found to be compatible with the screen. […] These findings support a ‘wet screening’ format for these target family.

USP-2 and UCH-L3 [2] = conditions: in absence of reducing agent; cited from earlier work
USP-2 and UCH-L3 [3] = assay: Inhibition of the deubiquitinases (titration of inhibitor, fluorescence polarization assay); assay type: biochemical, human; conditions: in presence of 5 mM DTT
Experimental: Measurements of polarization and lifetime are performed on the research reader of Evotec OAI (see below). To perform the test, the de-ubiquitinating enzyme is first put into the well and the addition of the substrate triggered the start of the reaction. The enzymatic reaction is stopped by shifting the pH from 7.5 to 5 with the addition of Stop buffer (end concentration of 30 mM malonic acid pH 4.5—see TABLE 1). With this procedure the read-out could be kept stable for several hours.
Cysteine proteases, such as USP-2 and UCH-L3, are sensitive to covalent modification of the active site cystein. […] Ubiquitin aldehyde is a known inhibitor for both enzymes, USP-2 and UCH-L3. […] Using this molecule we analyzed whether addition of DTT can be utilized to mask the activity of covalent active site inhibitors during the screen. When titrating Ubiquitin aldehyde in presence of 5 mM DTT an IC50 value of 100 nM was found.

Molecule: hydroxy beta cyclodextrin [HBC]
Effect on enzymatic activity (USP-2 and UCH-L3 [1]; HBC added to the assay): a reduction of the enzymatic activity was observed

Concentration compatible with the screen (USP-2 and UCH-L3 [1]): up to 5%
Interference with the reaction (USP-2 and UCH-L3 [1]; increasing concentrations added to the assay): only a minimal interference
Molecule: C[S+](C)[O-] [DMSO]

IC50 (USP-2 and UCH-L3 [3]): 100 nM
Molecule: Ubiquitin aldehyde
Potency (USP-2 and UCH-L3 [2]): pM activity range

— US20080038768A1, “Assay for ubiquitin mediated proteolysis” (priority 2006, published 2008)
